Results published in patent US7678884B2, “Biologically active peptide and agent containing the same” (Seikagaku Corporation, priority 2003, dated 2010).
Ends that are not written are not given here.

Columns and labels:
[1] = test system: OCCM30 cells; assay: Cell differentiation of OCCM30 cells (ALP activity); type: cell-based, mouse; settings: DMEM containing 2% FBS; versus control (FIG. 11)
Experimental: As mouse-derived cementoblasts, cells of the OCCM30 cell strain (Bone, 1999 Jul., 25(1):39-47) were used. This cell strain was provided from Professor Somerman of School of Dentistry University of Washington.
(§1) As an index of cell differentiation, alkaline phosphatase (ALP) activity of cells was determined. Cells were inoculated in a 24-well culture plate at a ratio of 5×10^3 cells/well, added with the peptide (a) at various concentrations and cultured in DMEM or αMEM containing 2% FBS. One week after the time point when the cells reached a confluent state, ALP activity was determined by the following enzymochemical method (Bessey-Lowry method, Bessey O A, Lowry O H and Brock M J, A method for the rapid determination of alkaline phosphatase with five cubic millimeter of serum, J. Biol. Chem., 164:321-329, 1946).
The cultured cells were washed with PBS and then disrupted in 10 mM Tris-HCl buffer (pH 7.4, 500 μl) for 40 seconds by using an ultrasonic homogenizer (Handy Sonic model UR-20P, Tomy Seiko) and stirred. Then, 25 μl of this sample liquid was added to 125 μl of ALP buffer (0.1 M carbonate buffer, pH 9.8, 6.7 mM p-nitrophenyl phosphate, 2 mM MgCl2) and incubated at 37° C. for 30 minutes. The reaction was terminated by addition of 125 μl of 0.2 N NaOH, and absorbance was measured at 405 nm by using a microplate reader (Model 550, Bio-Rad Laboratories). […]

[2] = test system: PDL cells; assay: Cell differentiation of PDL cells (alkaline phosphatase activity, Bessey-Lowry method); type: cell-based, human; settings: for ALP activity increasing effect on PDL cells relative to BMP2: at confluent state and one week after (FIG. 5, FIG. 6), comparison with BMP2
Excerpt: PDL cells were isolated from a healthy premolar carefully extracted from a patient who visited a hospital to extract teeth for orthodontic treatment so that periodontal ligament should not be damaged as far as possible, and cultured. The extracted tooth was washed with sterilized physiological saline and phosphate-buffered saline (PBS, Nissui), and then periodontal ligament existing in ⅓ of the tooth root at the center was scraped off with a sharp knife. The pieces of periodontal ligament were transferred to a plastic plate and minced into small fragments using a round-blade knife. Tissue fragments were left standing in a plate having a diameter of 35 mm (FALCON) and cultured in Dulbecco's modified Eagle medium (DMEM, Nissui) containing antibiotics (100 U/ml of penicillin G, 100 μg/ml of streptomycin and 250 μg/ml of gentamicin) and 10% fetal bovine serum (FBS, EQUITECH-BIO) at 37° C. under 5% CO2. Then, cells released from the periodontal ligament tissue fragments were subcultured under the same conditions, and the 3rd to 5th generation cells were used for experiments. • (ii) Mouse-derived Osteoblasts
as §1
(§2) The cultured cells were washed with PBS and then disrupted in 10 mM Tris-HCl buffer (pH 7.4, 500 μl) for 40 seconds by using an ultrasonic homogenizer (Handy Sonic model UR-20P, Tomy Seiko) and stirred. Then, 25 μl of this sample liquid was added to 125 μl of ALP buffer (0.1 M carbonate buffer, pH 9.8, 6.7 mM p-nitrophenyl phosphate, 2 mM MgCl2) and incubated at 37° C. for 30 minutes. The reaction was terminated by addition of 125 μl of 0.2 N NaOH, and absorbance was measured at 405 nm by using a microplate reader (Model 550, Bio-Rad Laboratories).
Further, the ALP activity in DMEM containing 2% FBS and DMEM or αMEM containing 2% FBS added with peptide (c) at various concentrations was also similarly examined. The symbol “cont” in FIG. 4 indicates the results for the cells cultured in DMEM containing 2% FBS alone, “PN” indicates the results for the cells cultured in the medium added only with the peptide (a), and “PC” indicates the results for the cells cultured in the medium added only with the peptide (c). In FIG. 4, “pg” and “ng” represent “pg/ml” and “ng/ml,” respectively.
Further, in addition to the peptide (a) (derived from swine), the human-derived peptide (b) and BMP were similarly examined. The results of ALP activity measurement performed when the cells reached a confluent state are shown in FIG. 5, and the results of ALP activity measurement performed one week after the confluent state was attained are shown in FIG. 6. The symbol “cont” in the figures indicates the results for the cells cultured in DMEM containing 2% FBS alone, “B” indicates the results for the cells cultured in the medium added only with BMP2, “PN” indicates the results for the cells cultured in the medium added only with the peptide (a), and “HN” indicates the results for the cells cultured in the medium added only with the peptide (b) In the figures, the unit of numerical values shown after “B,” “PN” and “HN” is “ng/ml.”

[3] = test system: Rat femur bone marrow-derived mesenchymal stem cells (BMMSC); assay: Cell differentiation of BMMSC cells (ALP activity); type: cell-based; settings: for cell differentiation promoting effect on BMSSC cells relative to BMP2: at confluent state (FIG. 8), comparison with BMP2; for cell differentiation promoting effect (ALP activity) on BMSSC cells: at confluent state, αMEM containing 2% FBS (FIG. 8)
Excerpt: Rat femur bone marrow-derived mesenchymal stem cells (BMMSC) were used. The cell strain of the cells was obtained according to the method of Maniatopoulos et al. (Maniatopoulos C, Sodek J and Melcher A H, Bone formation in vitro by stromal cells obtained from bone marrow of young adult rats, Cell Tissue Res., 254: 317-330, 1988). The femur was aseptically extracted, and surrounding soft tissue was removed as far as possible. The mesiodistal epiphysis of the femur was cut off, and the femur marrow tissue in 5 ml of 15S-containing minimum essential medium alpha medium (αMEM, GIBCO) was injected into 10 ml of the same culture broth by using a syringe. The obtained tissue was cultured in the 15S-containing αMEM at 37° C., and the 3rd to 5th generation cells were used for experiments. • (iv) Mouse-derived Cementoblasts
as §1, §2
Further, the peptides (a) and (b) and BMP2 were similarly examined by using the ST2 cells and BMMSC cells. The symbol “cont” in the figures indicates the results for the cells cultured in αMEM containing 2% FBS alone, “B” indicates the results for the cells cultured in the medium added only with BMP2, “HN” indicates the results for the cells cultured in the medium added only with the peptide (b), and “PN” indicates the results for the cells cultured in the medium added only with the peptide (a). In the figures, the unit of numerical values shown after “B,” “HN” and “PN” is “ng/ml.”

[4] = measured at confluent state and one week after (FIG. 5, FIG. 6), versus control

| Sequence | cell differentiation promoting effect (ALP activity) on OCCM30 cells [1] | ALP activity increasing effect on PDL cells relative to BMP2 [2] | ALP activity of the PDL cells [2, 4] | ALP activity of the PDL cells ([2]; peptide at various concentrations, 2% FBS medium, one week after confluent state, versus control (FIG. 4)) | cell differentiation promoting effect on BMSSC cells relative to BMP2 [3] | cell differentiation promoting effect (ALP activity) on BMSSC cells [3] |
| --- | --- | --- | --- | --- | --- | --- |
| VPAFPRQPGTPGVASL [Peptide (a)] | significant cell differentiation promoting effect | comparable to or higher than that of BMP2 | significantly increased | significantly increased | comparable to or higher than that of BMP2 | significant cell differentiation promoting effect |
| VPFFPQQSGTPGMASL [Peptide (b), peptide designed on the portion of human-derived sheathlin protein corresponding to (a)] |  | comparable to or higher than that of BMP2 | significantly increased |  | comparable to or higher than that of BMP2 | significant cell differentiation promoting effect |
